Test results reported in patent US7897578B2, “Peptides with anti-proliferative activity” (Societe de Conseils de Recherches et d'Applications …, priority 2006, dated 2011).
No end group written: not given here.

Assays:
[1] = Toxicity test in xenografted athymic mice (weight of the animals); type: in vivo; conditions: 5 and 10 mg/kg intra-peritoneal
Description: 4/Toxicity Test of Compound 1:
(§1) Cancerous cells from human SHSY-5Y neuroblastomas (Code ATCC: CRL-2266) are cultured in DMEM medium (Dulbecco's Modified Eagle's Medium) containing 100 U/ml of penicillin and 100 μg/ml of streptomycin sulphate, complemented with 10% foetal calf serum. The cells thus cultured are then xenografted by sub-cutaneous route into the flanks of athymic mice.
After a latent period of several days, the SHSY-5Y cells proliferate and form a small, obvious tumour (approximately 70 mm^3).
Compound 1, at this stage of the tumour's growth, is injected by intra-peritoneal route in doses of 5 and 10 mg/kg.
The results are reproduced in FIG. 3 describing the development of the weight of the animals as a function of time, which is an indicator of the possible toxicity of the products tested in this athymic mouse model.

[2] = tested on: human SHSY-5Y neuroblastoma tumour xenograft; test: In vivo cell proliferation test, SHSY-5Y cells xenografted into athymic mice; parameters: species or system athymic balb-c NCr-nu/nu mice; conditions: for reduction in the size of the tumour: after 21 days
Description: 3/In vivo Cell Proliferation Test on Cells of the SHSY-5Y Type with Compound 1:
as §1, with “balb-c NCr-nu/nu mice, aged 4 to 6 weeks.” for “mice.”
After a latent period of several days following the graft, the SHSY-SY cells proliferate and form a small tumour (approximately 70 mm^3) which is obvious under the flank of the animal.
Compound 1 is, at this stage of growth of the tumour, injected by intra-peritoneal route in doses of 5 and 10 mg/kg.
The results are reproduced in FIG. 2 describing the effect of compound 1 on growth kinetics and tumour volume.

YTVLSVGPGGLRSGRLPLQPRVQLDER-NH2 [Compound 1]
toxicity ([1]; inferred from animal weight): apparent absence of toxicity | effect on the weight of the animals ([1]; xenografted athymic mice): no effect | growth kinetics of the tumour ([2]; 5 mg/kg intra-peritoneal): slowing down | reduction in the size of the tumour ([2]; 5 mg/kg intra-peritoneal): approximately 20% | growth kinetics of the tumour ([2]; 10 mg/kg intra-peritoneal): very clear slowing down | reduction in the size of the tumour ([2]; 10 mg/kg intra-peritoneal): approximately 50% | anti-tumour activity ([2]; intra-peritoneal, 5 and 10 mg/kg, SHSY-5Y xenograft): dose-dependant anti-tumour activity
